Measurements from patent US20120288531A1, “PHARMACEUTICAL COMPOSITIONS FOR DELIVERY OF FERRIC IRON COMPOUNDS, AND METHODS OF USE THEREOF” (priority 2011, published 2012).

Legend:
[1] = Stability of ferric acetyl-hydroxamate complex in pre-hydrophilic fraction; conditions: pre-hydrophilic fraction of Table 1 (10% PVP-12 and 15% NaC8), 4 hours
[2] = one month at 25° and 40° C.
Blood hemoglobin = test: Repeated doses: effect on blood hemoglobin in normal SD rats; type: in vivo; conditions: ROA IJ (FAC) or PO (ferrous sulfate)
Method: Blood samples were collected pre-dosing (Day 1) and post-dosing (Day 22). Blood hemoglobin was evaluated using colorimetric assay.

Question: With CC(=O)N[O-].CC(=O)N[O-].CC(=O)N[O-].[Fe+3] [ferric acetyl-hydroxamate] as the compound, how does the “precipitation and Fe2+ formation” value [1] read?
Answer: The value was “Neither precipitation nor Fe^2+ formation was observed”.

Question: What about the “stability in the pre-hydrophilic fraction” value [1] of the same compound?
Answer: Its value is “stable for 4 hours”.

Question: For O.O=C([O-])CN(CCN(CC(=O)[O-])CC(=O)[O-])CC(=O)[O-].[Fe+3].[Na+] [ferric sodium EDTA, ethylenediaminetetraacetic acid iron(III) sodium salt hydrate], which “stability in the oily suspension” value [2] is on record?
Answer: The value was “good stability”.

Question: For ferrous sulfate, which “Hb at Day 22 (Mean ± SE)” value (Blood hemoglobin; post-dosing, daily for 21 days (18 doses), 6.3 mg iron per dose) is on record?
Answer: The value was 13.9 ± 0.2 g/dL.

Question: And the “Hb at Day 1 (Mean ± SE)” value (Blood hemoglobin; pre-dosing, normal SD rats)?
Answer: Its value is 14.2 ± 0.2 g/dL.
